Counter-ions that a name gives are not always drawn.
Row | SMILES | melting point
1 | CC(C)c1ccc2c(c1)CC[C@H]1[C@](C)(Cn3c(-c4ccc(CCC(=O)O)cc4)nc4cc(-c5ccccc5)ccc43)CCC[C@]21C | 298 to 300 °C
2 | CC(C)c1ccc2c(c1)CC[C@H]1[C@](C)(Cn3c(-c4cccc(OCCCC(=O)O)c4)nc4cc(-c5ccccc5)ccc43)CCC[C@]21C | 144 to 151 °C
3 | CC(C)c1ccc2c(c1)CC[C@H]1[C@](C)(Cn3c(-c4cccc(NCC(=O)O)c4)nc4cc(-c5ccccc5)ccc43)CCC[C@]21C | 180 °C
4 | CC(C)c1ccc2c(c1)CC[C@H]1[C@](C)(Cn3c(-c4cc(OCC(=O)O)ccc4N)nc4cc(-c5ccccc5)ccc43)CCC[C@]21C | > 295 °C (dec.)
5 | CC(C)c1ccc2c(c1)CC[C@H]1[C@](C)(Cn3c(-c4cc(OCC(=O)O)ccc4NC(=O)C(F)(F)F)nc4cc(-c5ccccc5)ccc43)CCC[C@]21C | 168 to 172 °C
6 | CC(C)c1ccc2c(c1)CC[C@H]1[C@](C)(Cn3c(-c4cccc(NC(=O)CC(=O)O)c4)nc4cc(-c5ccccc5)ccc43)CCC[C@]21C | 210 to 215 °C
7 | CC(C)c1ccc2c(c1)CC[C@H]1[C@](C)(Cn3c(-c4cccc(NC(=O)Cc5nnn[nH]5)c4)nc4cc(-c5ccccc5)ccc43)CCC[C@]21C | 200 °C
8 | COc1cc(OCCCC(=O)O)ccc1-c1nc2cc(-c3cccc(C#N)c3)ccc2n1C[C@]1(C)CCC[C@]2(C)c3ccc(C(C)C)cc3CC[C@@H]12 | 185 °C
9 | CC(C)c1ccc2c(c1)CC[C@H]1[C@](C)(Cn3c(-c4cccc(OCC(=O)O)c4)nc4cc(-c5ccccc5N)ccc43)CCC[C@]21C | 186 to 190 °C

Continued, values first:

Row | melting point | SMILES
10 | 175 °C (dec.) | CC(=O)Nc1cccc(-c2ccc3c(c2)nc(-c2cccc(OCC(=O)O)c2)n3C[C@]2(C)CCC[C@]3(C)c4ccc(C(C)C)cc4CC[C@@H]23)c1
11 | 166 °C (dec.) | CC(C)c1ccc2c(c1)CC[C@H]1[C@](C)(Cn3c(-c4cccc(OCC(=O)O)c4)nc4cc(-c5cccc(NS(C)(=O)=O)c5)ccc43)CCC[C@]21C
12 | 235 °C | CC(C)c1ccc2c(c1)CC[C@H]1[C@](C)(Cn3c(-c4cccc(NC(=O)C(=O)O)c4)nc4cc(-c5ccccc5)ccc43)CCC[C@]21C
13 | 166 to 178 °C | CC(C)c1ccc2c(c1)CC[C@H]1[C@](C)(Cn3c(-c4cccc(N5CCC(C(=O)O)CC5)c4)nc4cc(-c5ccccc5)ccc43)CCC[C@]21C
14 | 179 °C | CC(=O)Nc1ccc(OCC(=O)O)cc1-c1nc2cc(-c3ccccc3)ccc2n1C[C@]1(C)CCC[C@]2(C)c3ccc(C(C)C)cc3CC[C@@H]12
15 | 59 to 72 °C | COc1cc(OCCCC(=O)O)ccc1-c1nc2cc(/C=C/c3ccccc3)ccc2n1C[C@]1(C)CCC[C@]2(C)c3ccc(C(C)C)cc3CC[C@@H]12
16 | 258 to 262 °C | CC(C)c1ccc2c(c1)CC[C@H]1[C@](C)(Cn3c(-c4cccc(OCC(=O)O)c4)nc4cc(-c5cccc([NH+]([O-])O)c5)ccc43)CCC[C@]21C (stereo partly shown)
17 | 238 to 242 °C | CC(C)c1ccc2c(c1)CC[C@H]1[C@](C)(Cn3c(-c4cccc(OCC(=O)O)c4)nc4cc(-c5cccc(O)c5)ccc43)CCC[C@]21C
18 | 133 °C (dec.) | CC(C)c1ccc2c(c1)CC[C@H]1[C@](C)(Cn3c(-c4cccc(OCC(=O)O)c4)nc4cc(-c5cccc(CN6CCOCC6)c5)ccc43)CCC[C@]21C (as salt: trifluoroacetate)
19 | 127 °C | CC(C)c1ccc2c(c1)CC[C@H]1[C@](C)(Cn3c(-c4cccc(OCC(=O)O)c4)nc4cc(-c5cccc(CN(C)C)c5)ccc43)CCC[C@]21C (as salt: trifluoroacetate)
